This is an account of results in article PMC9693123 (2022).

As a reminder, the ΔTm is the shift of the melting midpoint relative to a reference.

Assay [1] has as its system Tel12 (DNA, G4) TAGGGTTAGGGT
As to the kind of experiment: UV melting at 295 nm. The note with it: KCl 0.1 M; NaCacodylate 2.5 mM, pH 7.0; ligand 1.75 × 10^-5 M, Tel12 1.87 × 10^-5 M.

For assay [2], the system named is Tel23 (DNA, G4) TAGGGTTAGGGTTAGGGTTAGGG
As to the kind of experiment: UV melting at 295 nm. The note with it: KCl 0.1 M; NaCacodylate 2.5 mM, pH 7.0; ligand 1.40 × 10^-5 M, Tel23 1.38 × 10^-5 M.

In assay [3] the test system is Tel12 (DNA, G4) TAGGGTTAGGGT
As to the kind of experiment: UV-vis titration, HypSpec2014 fit. The note with it: KCl 0.1 M, NaCacodylate 2.5 mM, pH 7.0, 25 °C.

Assay [4] concerns Tel23 (DNA, G4) TAGGGTTAGGGTTAGGGTTAGGG
As to the kind of experiment: UV-vis titration, HypSpec2014 fit. The note with it: KCl 0.1 M; NaCacodylate 2.5 mM, pH 7.0, 25 °C.

In assay [5] the test system is Tel12 (DNA, G4) TAGGGTTAGGGT
As to the kind of experiment: X-ray crystallography. The note with it: K+ in channel.

On to `COc1ccc2c(CCCc3ccncc3)c3[n+](cc2c1OC)CCc1cc2c(cc1-3)OCO2`, for which the thermal shift (ΔTm) in assay [1] was determined as 16.7 ± 1.3 °C; in assay [2], 2.3 ± 0.6 °C. Further, the results for the LogK in assay [3] and in assay [4] were 6.6 ± 0.2 and 5.8 ± 0.2, respectively.
Turning to `COc1ccc2c(CCCCc3ccncc3)c3[n+](cc2c1OC)CCc1cc2c(cc1-3)OCO2`, the shift in melting temperature (ΔTm) in assay [1] came out at 8.7 ± 1.5 °C; in assay [2], 5.9 ± 1.0 °C. Also, the binding entry in assay [5] (0.05 M KCacodylate, 0.1 M Li2SO4, pH 6.5, 20% v/v PEG400) was “yes”. Moreover, the LogK amounted to 7.0 ± 0.2 in assay [3] and 5.2 ± 0.2 in assay [4].
Turning to `COc1ccc2c(CCCCCc3ccncc3)c3[n+](cc2c1OC)CCc1cc2c(cc1-3)OCO2`, the ΔTm turned out to be 15.0 ± 1.4 °C in assay [1] and 5.1 ± 1.1 °C in assay [2]. Besides, the LogK turned out to be 7.2 ± 0.2 in assay [3] and 5.6 ± 0.2 in assay [4].
`COc1ccc2c(CCc3ccncc3)c3[n+](cc2c1OC)CCc1cc2c(cc1-3)OCO2`: the thermal shift (ΔTm) is 9.7 ± 1.8 °C in assay [1] and 4.1 ± 0.8 °C in assay [2]. Besides, the binding entry in assay [5] (0.1 M NaI in crystallizing solution, 0.05 M NaCacodylate pH 6.5, 35% v/v MPD) was “yes”. Moreover, the LogK was 6.1 ± 0.2 in assay [3] and 4.0 ± 0.3 in assay [4].
`COc1ccc2c(Cc3ccncc3)c3[n+](cc2c1OC)CCc1cc2c(cc1-3)OCO2`: the ΔTm in assay [1] came out at 14.4 ± 1.5 °C; in assay [2], 4.1 ± 0.4 °C. The LogK is 6.0 ± 0.2 in assay [3] (1:1 step, further 1:2 ligand:G4 adduct also fitted) and 4.4 ± 0.2 in assay [4].
